In the assay the target is human IRAK4 (Homo sapiens (Human), UniProt Q9NWZ3). The assay can be described thus: IRAK4 kinase inhibition, Transcreener fluorescence polarization (ADP). The class given is biochemical. The method, then: Compounds were assayed for inhibition of human IRAK4 and IRAK1 catalytic activity using recombinant enzyme produced from insect cells. Full-length IRAK4 protein, carrying an N-terminal His6-Tag, was obtained from Life Technologies (Carlsbad, Calif., USA). The IRAK1 construct was produced internally and was comprised of IRAK1 residues Arg194 to Ser712, preceded by an NH2-terminal His6 tag and the coding sequence for glutathione-S-transferase.
Sequence of human IRAK4 (Q9NWZ3 whole entry, the tested form may be a part): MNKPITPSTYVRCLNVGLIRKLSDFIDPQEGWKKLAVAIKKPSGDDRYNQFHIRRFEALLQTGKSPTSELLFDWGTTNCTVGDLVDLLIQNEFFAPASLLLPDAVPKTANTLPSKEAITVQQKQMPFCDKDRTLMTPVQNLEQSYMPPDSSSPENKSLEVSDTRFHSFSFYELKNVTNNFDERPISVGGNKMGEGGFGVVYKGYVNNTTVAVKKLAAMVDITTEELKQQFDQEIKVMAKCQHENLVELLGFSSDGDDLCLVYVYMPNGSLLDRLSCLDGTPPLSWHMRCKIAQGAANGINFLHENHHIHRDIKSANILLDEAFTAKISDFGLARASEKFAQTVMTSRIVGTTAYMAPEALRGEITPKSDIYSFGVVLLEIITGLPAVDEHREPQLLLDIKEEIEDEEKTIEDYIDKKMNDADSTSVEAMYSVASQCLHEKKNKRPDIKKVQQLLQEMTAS
Kinase activities were assayed using the Transcreener-Fluorecescence polarization platform (BelBrook Labs, Madison, Wis., USA) that measures amounts of the reaction product, ADP.
(Fluorescence polarisation rises when a labelled molecule tumbles more slowly, as on binding a larger partner.)

[1] abbreviates: recombinant full-length His6-IRAK4 1.25 nM, 125 uM ATP, 125 uM peptide, 90 min, ATP Km 642 uM, read-out: IRAK4 Ki.

Ki data for 29 compounds are collected here from US11034698B2, “Pyrazolo[ 1,5a]pyrimidine derivatives as IRAK4 modulators” (priority 2017, dated 2021).

By Ki is commonly meant the equilibrium dissociation constant of an inhibitor or competing ligand from its target.

The structures appear in SMILES notation. Like-named read-outs stand apart in the source and are kept apart here.

For `CC1(C)Cc2cc(NC(=O)c3cnn4cccnc34)c(N3CCN(C[C@H]4CCCC(=O)N4)CC3)cc2O1` (single isomer, unassigned) [Example 7], the Ki amounted to 10 nM.
`CC[C@H]1CC(=O)NN1C1CCN(c2cc3c(cc2NC(=O)c2cnn4cccnc24)CC(C)(C)O3)CC1` (single isomer, unassigned) [Example 18] returned a Ki of 6.7 nM.
For the compound `CC1(C)Cc2cc(NC(=O)c3cnn4cccnc34)c(O[C@@H]3CN(CC(N)=O)C[C@H]3N)cc2O1` (single isomer, unassigned) [Example 20], the Ki was 17 nM.
Same read-out and setting: to `CCN1C[C@@H](COc2cc3c(cc2NC(=O)c2cnn4cccnc24)CC(C)(C)O3)CC1=O` (single isomer, unassigned) [Example 23] belongs 250 nM; to `CN1C[C@@H](COc2cc3c(cc2NC(=O)c2cnn4cccnc24)CC(C)(C)O3)CC1=O` (single isomer, unassigned) [Example 25], 90 nM; to `CC1(C)Cc2cc(NC(=O)c3cnn4cccnc34)c(OC[C@H]3Cc4ccccc4[C@H]3N)cc2O1` (single isomer, unassigned) [Example 27], 670 nM.
Still for that read-out and setting: to `CC1(C)Cc2cc(NC(=O)c3cnn4cccnc34)c(OC[C@H]3Cc4ccccc4[C@@H]3N)cc2O1` (single isomer, unassigned) [Example 28] belongs 260 nM; to `CC1(C)Cc2cc(NC(=O)c3cnn4cccnc34)c(OC[C@@H]3Cc4ccccc4[C@@H]3N)cc2O1` (single isomer, unassigned) [Example 29], 780 nM.
On the same count and under the same terms, under `CC1(C)Cc2cc(NC(=O)c3cnn4cccnc34)c(OC[C@@H]3C[C@@H]4NCCO[C@H]4C3)cc2O1` (single isomer, unassigned) [Example 31] stands 60 nM.
`CC1(C)Cc2cc(NC(=O)c3cnn4cccnc34)c(OC[C@@H]3C[C@H]4NCCO[C@@H]4C3)cc2O1` (single isomer, unassigned) [Example 32] came in with a Ki of 720 nM.
The compound `CC1(C)Cc2cc(NC(=O)c3cnn4cccnc34)c(OC[C@H]3C[C@H]4NCCO[C@@H]4C3)cc2O1` (single isomer, unassigned) [Example 33] showed a Ki of 230 nM.
The same measure, in the same setting: under `COc1cc2c(cc1NC(=O)c1cnn3ccc(N4C[C@H](N)CC(F)(F)C4)nc13)CC(C)(C)O2` (single isomer, unassigned) [Example 37] stands 7.7 nM.
Turning to `C[C@]1(CCC#N)COc2cc(N3CCOCC3)c(NC(=O)c3cnn4cccnc34)cc2C1` (single isomer, unassigned) [Example 59], affinity was put at a Ki of 30 nM.
In turn, `CC(C)(O)[C@H](F)CN1Cc2cc(NC(=O)c3cnn4cccnc34)c(O[C@@H]3CCNC3)cc2C1=O` (single isomer, unassigned) [Example 63] showed a Ki of 5.3 nM.
For the compound `CC(C)(O)[C@H](F)CN1Cc2cc(NC(=O)c3cnn4cccnc34)c(O[C@@H]3CC[C@H](O)C3)cc2C1=O` (single isomer, unassigned) [Example 67], the affinity, expressed as Ki, was 1.1 nM.
On the same count and under the same terms, under `CC(C)Oc1cc2c(cc1NC(=O)c1cnn3cccnc13)CN([C@@H]1CCOC1)C2=O` (single isomer, unassigned) [Example 69] stands 1.8 nM; under `CC(C)(O)[C@H](F)CN1Cc2cc(NC(=O)c3cnn4cccnc34)c(OC[C@H]3CNC(=O)C3)cc2C1=O` (single isomer, unassigned) [Example 72], 1 nM.
Same read-out and setting: under `CC(C)(O)[C@H](F)CN1Cc2cc(NC(=O)c3cnn4cccnc34)c(O[C@H]3CCOC3)cc2C1=O` (single isomer, unassigned) [Example 84] stands 0.49 nM.
On to `C[C@@H]1C[C@@H]2CN(c3cc4c(cc3NC(=O)c3cnn5cccnc35)CN(C[C@@H](F)C(C)(C)O)C4=O)CCN2C1` (single isomer, unassigned) [Example 111], for which the Ki was determined as 9.9 nM.
The same measure, in the same setting: under `CN(C)c1cc2c(cc1NC(=O)c1cnn3cccnc13)CC(C)(C)[C@@H]2O` (single isomer, unassigned) [Example 157] stands 310 nM.
As to `CC1(C)Cc2cc(NC(=O)c3cnn4cccnc34)c(N3CCN(CCN)CC3)cc2O1` [Example 1, N-[6-[4-(2-aminoethyl)piperazin-1-yl]-2,2-dimethyl-3H-benzofuran-5-yl]pyrazolo[1,5-a]pyrimidine-3-carboxamide], the Ki under setting [1] amounted to 7.4 nM.
For the compound `CC(=O)NCCN1CCN(c2cc3c(cc2NC(=O)c2cnn4cccnc24)CC(C)(C)O3)CC1` [Example 3, N-(6-(4-(2-Acetamidoethyl)piperazin-1-yl)-2,2-dimethyl-2,3-dihydrobenzofuran-5-yl)pyrazolo[1,5-a]pyrimidine-3-carboxamide], the Ki under setting [1] is 3.7 nM.
On the same count and under the same terms, under `CN(C)CCN1CCN(c2cc3c(cc2NC(=O)c2cnn4cccnc24)CC(C)(C)O3)CC1` [Example 4, N-(6-(4-(2-(Dimethylamino)ethyl)piperazin-1-yl)-2,2-dimethyl-2,3-dihydrobenzofuran-5-yl)pyrazolo[1,5-a]pyrimidine-3-carboxamide] stands 41 nM.
Still for that read-out and setting: to `Cc1ccc(=O)[nH]c1CN1CCN(c2cc3c(cc2NC(=O)c2cnn4cccnc24)CC(C)(C)O3)CC1` [Example 5, N-(2,2-Dimethyl-6-(4-((3-methyl-6-oxo-1,6-dihydropyridin-2-yl)methyl)piperazin-1-yl)-2,3-dihydrobenzofuran-5-yl)pyrazolo[1,5-a]pyrimidine-3-carboxamide] belongs 18 nM; to `CC1(C)Cc2cc(NC(=O)c3cnn4cccnc34)c(N3CCN(C[C@@H]4CCCC(=O)N4)CC3)cc2O1` [Example 6, (S)-N-(2,2-Dimethyl-6-(4-((6-oxopiperidin-2-yl)methyl)piperazin-1-yl)-2,3-dihydrobenzofuran-5-yl)pyrazolo[1,5-a]pyrimidine-3-carboxamide], 5.3 nM; to `Cc1nc[nH]c1CN1CCN(c2cc3c(cc2NC(=O)c2cnn4cccnc24)CC(C)(C)O3)CC1` [Example 8, N-(2,2-Dimethyl-6-(4-((4-methyl-1H-imidazol-5-yl)methyl)piperazin-1-yl)-2,3-dihvdrobenzofuran-5-yl)pyrazolo[1,5-a]pyrimidine-3-carboxamide], 3.8 nM.
In the case of `CCc1nc[nH]c1CN1CCN(c2cc3c(cc2NC(=O)c2cnn4cccnc24)CC(C)(C)O3)CC1` [Example 9, N-[6-[4-[(4-Ethyl-1H-imidazol-5-yl)methyl]piperazin-1-yl]-2,2-dimethyl-3H-benzofuran-5-yl]pyrazolo[1,5-a]pyrimidine-3-carboxamide], the Ki under setting [1] is 3.9 nM.
As to `CC1(C)Cc2cc(NC(=O)c3cnn4cccnc34)c(N3CCN(Cc4[nH]cnc4Cl)CC3)cc2O1` [Example 10, N-(6-(4-((4-Chloro-1H-imidazol-5-yl)methyl)piperazin-1-yl)-2,2-dimethyl-2,3-dihydrobenzofuran-5-yl)pyrazolo[1,5-a]pyrimidine-3-carboxamide], the Ki under setting [1] turned out to be 2.3 nM.
`Cc1ncsc1CN1CCN(c2cc3c(cc2NC(=O)c2cnn4cccnc24)CC(C)(C)O3)CC1` [Example 11, N-(2,2-Dimethyl-6-(4-((4-methylthiazol-5-yl)methyl)piperazin-1-yl)-2,3-dihydrobenzofuran-5-yl)pyrazolo[1,5-a]pyrimidine-3-carboxamide]: the Ki under setting [1] was found to be 4.6 nM.
